In patent US11535606B2, “Substituted quinoline-8-carbonitrile derivatives with androgen receptor degradation activity and uses thereof” (ACCUTAR BIOTECHNOLOGY INC., priority 2019, dated 2022):
Changes are numbered by the printed parent chain.

Tests used:
Assay type in all cases: cell-based
Conditions in all cases: 24 hours after administration, DC50 = concentration needed for 50% target protein degradation
androgen receptor (AR) [1] = biological target: T1, androgen receptor (AR) (Homo sapiens, UniProt P10275, T878A); test: AR degradation activity in LNCAP cells (Western blot)
T1 construct: endogenous in cells; host or cells: LNCAP
T1 sequence (P10275 1-920 T878A): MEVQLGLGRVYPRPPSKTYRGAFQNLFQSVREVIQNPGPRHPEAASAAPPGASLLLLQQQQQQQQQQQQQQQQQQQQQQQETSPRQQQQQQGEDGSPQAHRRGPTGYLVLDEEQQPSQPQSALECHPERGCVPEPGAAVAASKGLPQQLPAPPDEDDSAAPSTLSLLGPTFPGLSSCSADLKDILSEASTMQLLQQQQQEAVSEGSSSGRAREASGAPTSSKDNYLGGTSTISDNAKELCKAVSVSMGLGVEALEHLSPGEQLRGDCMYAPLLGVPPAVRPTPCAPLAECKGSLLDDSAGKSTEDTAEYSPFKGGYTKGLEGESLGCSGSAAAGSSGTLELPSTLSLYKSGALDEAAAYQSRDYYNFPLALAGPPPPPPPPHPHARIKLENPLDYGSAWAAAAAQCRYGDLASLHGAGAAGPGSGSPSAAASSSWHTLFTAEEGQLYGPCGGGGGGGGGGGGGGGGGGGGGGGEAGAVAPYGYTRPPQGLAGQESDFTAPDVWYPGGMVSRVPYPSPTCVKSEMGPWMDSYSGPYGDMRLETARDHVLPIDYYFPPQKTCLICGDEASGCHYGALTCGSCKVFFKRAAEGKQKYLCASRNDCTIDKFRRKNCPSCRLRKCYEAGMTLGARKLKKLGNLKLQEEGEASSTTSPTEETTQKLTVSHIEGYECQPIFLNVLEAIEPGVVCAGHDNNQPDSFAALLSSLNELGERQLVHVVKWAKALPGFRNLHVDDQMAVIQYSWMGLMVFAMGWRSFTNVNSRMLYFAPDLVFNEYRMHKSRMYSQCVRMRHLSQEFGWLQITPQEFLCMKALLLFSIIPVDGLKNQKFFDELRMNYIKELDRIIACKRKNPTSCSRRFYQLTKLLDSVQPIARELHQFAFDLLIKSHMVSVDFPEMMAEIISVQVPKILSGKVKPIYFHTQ
Procedure: (§1) LNCAP, VCAP and 22Rv1 cells were plated in 24-well plates at 1.5×10E5 cells/well in the RPMI growth medium containing 10% FBS and 1% Penicillin Streptomycin, and then incubated at 37° C. overnight. The following day, the test compound was administered to the cells by using 1000× compound stock solution prepared in DMSO at various concentrations. After administration of the compound, the cells were then incubated at 37° C. for 24 hours. Upon completion, the cells were washed with PBS and protein was collected in Laemmli sample buffer (1×; VWR International). Proteins in cell lysate were separated by SDS-PAGE and transferred to Odyssey nitrocellulose membranes (Licor) with Iblot® dry blotting transfer system (ThermoFisher). Nonspecific binding was blocked by incubating membranes with Intercept Blocking Buffer (Licor) for 1 hour at room temperature with gentle shaking. The membranes were then incubated overnight at 4° C. with Primary antibodies rabbit anti-AR (1:1,000, Cell Signaling, 5153) and mouse anti-GAPDH (1:5,000, Santa Cruz Biotechnology, sc-47724) diluted in Intercept Blocking Buffer containing 0.1% Tween 20. After washing 3 times with TBS-T, the membranes were incubated with IRDye® 800CW goat anti-mouse IgG (1:20,000, Licor) or IRDye® 800CW goat anti-rabbit IgG (1:20,000, Licor) for 1 hour. After TBS-T washes, membranes were rinsed in TBS and scanned on Odyssey® CLx Imaging System (Licor). The bands were quantified using Image Studio™ Software (Licor).
(§2) Table 4 summarizes the androgen receptor (AR) degradative activity of exemplary compounds in LNCAP, VCAP and 22Rv1 cell lines 24 hours after administration. DC50: compound concentration needed for 50% target protein degradation.

androgen receptor (AR) [2] = biological target: T2, androgen receptor (AR) (Homo sapiens, UniProt P10275); test: AR degradation activity in VCAP cells (Western blot)
T2 construct: endogenous in cells; host or cells: VCAP
T2 sequence (P10275 1-920): T1 sequence (P10275 1-920 T878A) with A878T
Procedure: as §1, §2

androgen receptor (AR) [3] = test: AR degradation activity in 22Rv1 cells (Western blot)
Procedure: as §1, §2

Measured: DC50

N#Cc1ccc(O[C@H]2CC[C@H](NC(=O)c3ccc(N4CCC(CN5CCN(c6ccc7c(c6)CN([C@H]6CCC(=O)NC6=O)C7=O)CC5)CC4)nc3)CC2)c2cccnc12 [Compound 3-29, trans-N-(4-((8-cyanoquinolin-5-yl)oxy)cyclohexyl)-6-(4-((4-(2-((S)-2,6-dioxopiperidin-3-yl)-1-oxoisoindolin-5-yl)piperazin-1-yl)methyl)piperidin-1-yl)nicotinamide]
< 10 nM: all assays above

N#Cc1ccc(O[C@H]2CC[C@H](NC(=O)c3ccc(N4CCC(CN5CCN(c6ccc7c(c6)CN([C@H]6CCC(=O)NC6=O)C7=O)CC5)CC4)c(F)c3)CC2)c2cccnc12 [Compound 3-31, trans-N-(4-((8-cyanoquinolin-5-yl)oxy)cyclohexyl)-4-(4-((4-(2-((S)-2,6-dioxopiperidin-3-yl)-1-oxoisoindolin-5-yl)piperazin-1-yl)methyl)piperidin-1-yl)-3-fluorobenzamide]
< 10 nM: all assays above

N#Cc1ccc(OC2CCC(NC(=O)c3ccc(N4CCC(CN5CCN(c6cc7c(cc6F)C(=O)N(C6CCC(=O)NC6=O)C7=O)CC5)CC4)nn3)CC2)c2cccnc12 (stereo not drawn) [Compound 3-36]
< 10 nM: all assays above
